Here are results for one compound from patent US20240050587A1, “LIPOSOMES COMPRISING ANTI-LOX ANTIBODY” (ISTITUTO SCIENTIFICO ROMAGNOLO PER LO STUDIO E LA CURA DEI …, priority 2019, published 2024).

Structures can show the parent of a compound that is named as a salt.

Data set [1] deals with MDA-MB-231 orthotopic xenograft. As to the kind of experiment: Histological analysis (H&E) and collagen quantification of explanted tumors. The class given is in vivo, NU/NU nude mice. The note with it: H&E sections of explanted tumors, 55 days post treatment; control 5%. As for the experimental part: (§1) Explanted mice organs (heart, liver, spleen, kidneys, lungs, tibia) and tumors were washed twice with PBS, embedded in a cryomold in O.C.T. (Tissue-Tek® O.C.T. Compound, Sakura® Finetek), and frozen at −80 degree. Ten μm-thick slides were obtained cutting tissues block with a cryostat at −20 degree. The slides were then stored at −20 degree until the analysis.
(§2) Hematoxylin and eosin (H&E) staining was performed to evaluate the efficacy and safety of Lipo-EPI-LOX compared to the other treatment groups. Briefly the organs and tumor slides were thawed, hydrated and stained with H&E following the manufacturer's instructions. The stained slides were analyzed with an optical Zeiss Axioskop microscope (Carl Zeiss, Gottingen, Germany) equipped with a Polaroid camera.
Tumors frozen 5-μm-thick slides were fixed for 5 min in formalin 10% solution, then washed and stained with Weigert's haematoxylin. Then the sections were stained with 0.1% (Direct Red 80) (Sigma Aldrich) picrosirius red in saturated aqueous solution of picric acid. The stained slides were analyzed with the NIS Elements software (Nikon Corporation, Tokyo, Japan).

For data set [2] the following is noted: human, clinical data [28]; cited from earlier work.
In data set [3] the test system is collagen scaffold cultured with MDA-MB-231. The experiment in a line: Mechanical testing: stiffness of collagen scaffolds under unconfined uniaxial compression. Type of data set: cell-based, human. As to conditions: 72 h of treatment; CTR 67.3 kPa. From the text: As previously described, an in-house built instrument prototype was developed by the inventors to apply a state of unconfined uniaxial compression to the collagen scaffolds. The applied stress (r, in kPa) could then be analyzed by dividing the applied force by the cross section of the sample. The applied force consisted of a pre-load of 1.41 kPa held constantly for 30 s; the full load of 5.97 kPa was then constantly applied for 30 s. The stiffness (compressive modulus, in kPa) of the collagen scaffold cultured with MDA-MB-231 and exposed for 72 h to all treatment groups was computed as the ratio between the increment of stress and increment of strain from the preload to the full load values. The samples were analyzed in air immediately after having been removed from the PBS where they were soaked. Five samples of each type were tested and each specimen was tested 10 times.

Data set [4] concerns MDA-MB-231 orthotopic xenograft. As to the kind of experiment: In vivo drug testing: tumor growth in orthotopic xenograft (caliper and BLI). The note with it: weekly i.v. 3.24 mg/Kg; caliper; mean ± spread. On the set-up: species or system NU/NU nude mice. On the procedure:
MDA-MB-231 labeled with luciferase probe (2×10^6 cells/100 μl matrigel) were orthotopically injected into the right mammary fad pad of female immunodeficient NU/NU nude mice [NU-Foxn1nu] 8-10 weeks old (Charles River Laboratories, Wilmington, MA, USA). NU/NU nude mice were housed five per cage at the HMRI animal facility, there were maintained under pathogen free conditions and on low-fluorescence diet according to the National Institutes of Health guidelines.
(§3) Tumor size and body weight were measured with caliper and a digital balance once a week. Tumor volume was calculated according to the formula (W×W×L)/2, where W and L represent the width and the length of tumor, respectively. Body weight change % was calculated were calculated by comparing weights at the start and end of therapy throught the formula throught the formula weight DO/weight D33%.
Furthermore, the impact on tumor growth was validated by performing bioluminescence imaging (BLI) of TNBC tumors at Day 0 and Day 33 (FIG. 4B, Figure S4 supportive information). This was performed in order to support the caliper measurements since the bioluminescent signal obtained from BLI is directly related to the viability of cells and could serve as metric to evaluate impact of therapy. The BLI quantification percentage was calculated throught the formula BLI DO/BLI D33%. […]

Data set [5] can be described thus: Safety: body weight change and H&E histology of hearts. The class given is in vivo, NU/NU nude mice. On the procedure:
as §3, §1, §2

Data set [6] deals with MDA-MB-231 orthotopic xenograft. As to the kind of experiment: Survival study (Kaplan-Meier). The note with it: 55 days post treatment. Type of data set: in vivo, NU/NU nude mice. As for the experimental part:
Mice (n=10 per cohort) were sacrificed when the tumor volume reached 2000 mm^3 or when showing signs of morbidity. Data were analyzed using the Kaplan-Meier method. Comparisons among different treatment groups were performed using the log rank test for trend and considered significant with a p value less than 0.05.

For the compound `COc1cccc2c1C(=O)c1c(O)c3c(c(O)c1C2=O)C[C@@](O)(C(=O)CO)C[C@@H]3O[C@H]1C[C@H](N)[C@@H](O)[C@H](C)O1` [Free EPI, epirubicin hydrochloride], the necrotic tumor cells in data set [1] is 20%. In addition, the plasma peak concentration in data set [2] is 3.4 µg/mL. The “average compressive modulus (scaffold stiffness)” value in data set [3] is given as 64.38 kPa. Further, in data set [4], the “tumor volume (tumor growth)” value is given as 1029 mm^3. Further, the “inflammatory infiltrate in myocardial tissue (cardiotoxicity)” value in data set [5] (H&E hearts) is recorded as “increment of cellularity due to the inflammatory infiltrate”. Moreover, the “increase in body weight” value in data set [5] (end of study, D33 versus D0, CTR 3.3%) was determined as 3.7%. In data set [6], the survival result is listed as “less than 50%”.
